In test [1] the target is T1, rat monoamine oxidase A (Rattus norvegicus, UniProt P21396).
T1 construct: from tissue
T1 sequence (P21396 1-526): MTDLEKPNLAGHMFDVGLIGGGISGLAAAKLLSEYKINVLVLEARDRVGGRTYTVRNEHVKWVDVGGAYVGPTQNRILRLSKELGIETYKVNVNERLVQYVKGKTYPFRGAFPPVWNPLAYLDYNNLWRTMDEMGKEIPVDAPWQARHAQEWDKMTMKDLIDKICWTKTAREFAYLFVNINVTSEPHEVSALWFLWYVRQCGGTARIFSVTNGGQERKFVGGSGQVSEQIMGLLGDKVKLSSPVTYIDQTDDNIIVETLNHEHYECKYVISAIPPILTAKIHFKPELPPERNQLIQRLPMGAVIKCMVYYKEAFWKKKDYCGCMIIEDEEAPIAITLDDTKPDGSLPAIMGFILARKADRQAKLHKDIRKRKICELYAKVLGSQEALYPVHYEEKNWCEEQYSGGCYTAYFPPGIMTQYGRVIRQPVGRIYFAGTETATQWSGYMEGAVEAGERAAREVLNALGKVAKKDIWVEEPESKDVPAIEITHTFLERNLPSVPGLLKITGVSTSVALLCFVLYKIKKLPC
As to the kind of experiment: Inhibition of MAO-A (spectrofluorimetric method). The class given is biochemical. Conditions: 10 μM compound. The source says: (§1) 2.2.2.6 Inhibition Study on MAOs in vitro
(§2) Inhibition of rat monoamine oxidase A and B was studied by means of a spectrofluorimetric method as previously detailed.

Test [2] is described as follows: Inhibition of linoleic acid lipid peroxidation (AAPH). Conditions: 100 μM compound, 37°C. A digest of the protocol: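 Sodium linoleate oxidation in 0.05 M phosphate buffer, pH 7.4, at 37°C, initiated by AAPH, with test compounds added from DMSO stock. Conjugated diene hydroperoxide formation followed at 234 nm, with a DMSO-only control and Trolox as standard.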
The target in test [3] is T2, electric eel acetylcholinesterase (eeAChE) (Electrophorus electricus, UniProt O42275).
T2 construct: purchased Sigma
T2 sequence (O42275 24-633): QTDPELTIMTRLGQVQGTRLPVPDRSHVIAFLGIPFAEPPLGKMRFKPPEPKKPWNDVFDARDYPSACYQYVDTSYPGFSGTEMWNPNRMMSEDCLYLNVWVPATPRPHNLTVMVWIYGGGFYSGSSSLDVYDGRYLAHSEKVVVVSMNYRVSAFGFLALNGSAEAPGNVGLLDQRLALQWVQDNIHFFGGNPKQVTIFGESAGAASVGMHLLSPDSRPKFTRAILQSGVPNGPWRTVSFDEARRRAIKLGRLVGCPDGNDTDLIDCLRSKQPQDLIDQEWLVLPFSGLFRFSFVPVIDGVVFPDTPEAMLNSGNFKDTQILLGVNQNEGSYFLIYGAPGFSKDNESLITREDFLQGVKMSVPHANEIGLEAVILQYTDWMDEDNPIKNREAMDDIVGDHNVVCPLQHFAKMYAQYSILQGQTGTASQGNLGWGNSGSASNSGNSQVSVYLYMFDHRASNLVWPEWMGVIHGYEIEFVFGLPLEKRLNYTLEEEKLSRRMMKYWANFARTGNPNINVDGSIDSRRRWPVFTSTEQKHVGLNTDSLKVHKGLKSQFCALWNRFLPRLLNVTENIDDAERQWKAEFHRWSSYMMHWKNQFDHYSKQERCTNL
As to the kind of experiment: biochemical. The class given is biochemical. Conditions: read-out: eeAChE IC50 μΜ. The source says: 2.2.2.5 Inhibition Study on ChEs in vitro
In vitro inhibition of electric eel acetylcholinesterase (eeAChE; 463 U/mg, Sigma) and equine serum butyrylcholinesterase (esBChE; 13 U/mg, Sigma) was investigated with a 96-well plate procedure based on the classical Ellman’s spectrophotometric test, as already described.

The target in test [4] is T3, rat monoamine oxidase B (Rattus norvegicus, UniProt P19643).
T3 construct: from tissue
T3 sequence (P19643 1-520): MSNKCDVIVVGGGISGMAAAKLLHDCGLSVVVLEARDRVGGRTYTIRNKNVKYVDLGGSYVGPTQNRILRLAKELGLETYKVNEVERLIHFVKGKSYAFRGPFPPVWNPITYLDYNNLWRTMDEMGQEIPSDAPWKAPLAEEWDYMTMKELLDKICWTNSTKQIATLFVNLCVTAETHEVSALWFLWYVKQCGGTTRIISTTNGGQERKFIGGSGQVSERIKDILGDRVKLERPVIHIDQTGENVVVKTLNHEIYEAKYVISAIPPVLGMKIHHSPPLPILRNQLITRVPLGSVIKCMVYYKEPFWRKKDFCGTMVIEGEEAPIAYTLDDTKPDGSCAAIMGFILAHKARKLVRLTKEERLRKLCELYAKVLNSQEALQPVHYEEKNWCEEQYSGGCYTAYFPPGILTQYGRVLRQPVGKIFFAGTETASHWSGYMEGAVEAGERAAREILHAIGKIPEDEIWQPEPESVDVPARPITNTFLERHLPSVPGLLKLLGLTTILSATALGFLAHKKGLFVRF
As to the kind of experiment: Inhibition of MAO-B (spectrofluorimetric method). The format is biochemical. Conditions: for MAO-B (%) @ 10μΜ: 10 μM compound.
From the text: as §1, §2

The record followed here is paper PMC5748833, “Synthesis and Biological Evaluation of Novel Hybrid Molecules Containing Purine, Coumarin and Isoxazoline or Isoxazole Moieties” (The Open Medicinal Chemistry Journal, 2017).

The structures appear in SMILES notation.

Take `O=c1cc(OCC2CC(Cn3cnc4c(N5CCCCC5)ncnc43)=NO2)c2ccccc2o1` (stereo not drawn) [4f]: the “MAO-A (%) @ 10μΜ” value in test [1] is on record as “no”. In addition, in test [2], the “LP % @ 100μΜ (inhibition of lipid peroxidation)” value turned out to be 62%. Besides, in test [3], the half-maximal inhibitory concentration (IC50) is 1.4 µM. Besides, in test [4], the “MAO-B (%) @ 10μΜ” value is on record as “no”.

For the molecule `Cc1cc(=O)oc2ccc(OCC3=NOC(Cn4cnc5c(Cl)ncnc54)C3)cc12` (stereo not drawn) [11b], the “MAO-A (%) @ 10μΜ” value in test [1] is given as 15%. Also, the “LP % @ 100μΜ (inhibition of lipid peroxidation)” value in test [2] is “no”. The figures for the IC50 in test [3] and in test [4] (read-out: MAO-B IC50 μΜ) were 5.9 µM and 9.5 µM, respectively.

Turning to `O=c1cc(OCc2cc(Cn3cnc4c(N5CCOCC5)ncnc43)no2)c2ccccc2o1` [13i], the “MAO-A (%) @ 10μΜ” value in test [1] came to 6%. Also, the “LP % @ 100μΜ (inhibition of lipid peroxidation)” value in test [2] is on record as 74%. Also, in test [3], the IC50 was 5 µM. Further, the “MAO-B (%) @ 10μΜ” value in test [4] worked out at 9%.
